Data from PubChem BioAssay (NCI).
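Exposure lasted 48 hours, with cells grown in 96-well plates and compounds tested at five concentrations. GI50: concentration for 50% inhibition of growth. TGI: total growth inhibition.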 Activity calls are given as the source filed them. Rule as the data show it: active = GI50 below about 0.43 µM; inactive = the rest.

Assays:
Test in all cases: DTP human tumour cell line panel, 48 h
A498 renal = test system: A498 renal
A549 NSCLC = test system: A549 NSCLC
BT-549 breast = test system: BT-549 breast
CAKI-1 renal = test system: CAKI-1 renal
CCRF-CEM leukemia = test system: CCRF-CEM leukemia
COLO 205 colon = test system: COLO 205 colon
DU-145 prostate = test system: DU-145 prostate
EKVX NSCLC = test system: EKVX NSCLC
HCC-2998 colon = test system: HCC-2998 colon
HCT-116 colon = test system: HCT-116 colon
HCT-15 colon = test system: HCT-15 colon
HL-60(TB) leukemia = test system: HL-60(TB) leukemia
HOP-62 NSCLC = test system: HOP-62 NSCLC
HOP-92 NSCLC = test system: HOP-92 NSCLC
HS 578T breast = test system: HS 578T breast
HT29 colon = test system: HT29 colon
IGROV1 ovarian = test system: IGROV1 ovarian
K-562 leukemia = test system: K-562 leukemia
LOX IMVI melanoma = test system: LOX IMVI melanoma
M14 melanoma = test system: M14 melanoma
MALME-3M melanoma = test system: MALME-3M melanoma
MCF7 breast = test system: MCF7 breast
MDA-MB-231 breast = test system: MDA-MB-231 breast
MDA-MB-435 = test system: MDA-MB-435
MOLT-4 leukemia = test system: MOLT-4 leukemia
NCI-H23 lung = test system: NCI-H23 lung
NCI-H460 lung = test system: NCI-H460 lung
NCI/ADR-RES ovarian = test system: NCI/ADR-RES ovarian
OVCAR-3 ovarian = test system: OVCAR-3 ovarian
OVCAR-4 ovarian = test system: OVCAR-4 ovarian
OVCAR-5 ovarian = test system: OVCAR-5 ovarian
OVCAR-8 ovarian = test system: OVCAR-8 ovarian
PC-3 prostate = test system: PC-3 prostate
RXF 393 renal = test system: RXF 393 renal
SF-268 CNS = test system: SF-268 CNS
SF-295 CNS = test system: SF-295 CNS
SF-539 CNS = test system: SF-539 CNS
SK-MEL-2 melanoma = test system: SK-MEL-2 melanoma
SK-MEL-28 melanoma = test system: SK-MEL-28 melanoma
SK-MEL-5 melanoma = test system: SK-MEL-5 melanoma
SK-OV-3 ovarian = test system: SK-OV-3 ovarian
SN12C renal = test system: SN12C renal
SNB-19 CNS = test system: SNB-19 CNS
SNB-75 CNS = test system: SNB-75 CNS
SR leukemia = test system: SR leukemia
SW-620 colon = test system: SW-620 colon
T-47D breast = test system: T-47D breast
TK-10 renal = test system: TK-10 renal
U251 CNS = test system: U251 CNS
UACC-257 melanoma = test system: UACC-257 melanoma
UACC-62 melanoma = test system: UACC-62 melanoma
UO-31 renal = test system: UO-31 renal
786-0 renal = test system: 786-0 renal
ACHN renal = test system: ACHN renal
KM12 colon = test system: KM12 colon
NCI-H522 lung = test system: NCI-H522 lung

O=c1cc(-c2cc(O)c(O)c(-c3c(O)cc(O)c4c(=O)cc(-c5ccc(O)c(O)c5)oc34)c2)oc2cc(O)cc(O)c12
inactive: outcome (A498 renal) | outcome (A549 NSCLC) | outcome (BT-549 breast) | outcome (CAKI-1 renal) | outcome (CCRF-CEM leukemia) | outcome (COLO 205 colon) | outcome (DU-145 prostate) | outcome (EKVX NSCLC) | outcome (HCC-2998 colon) | outcome (HCT-116 colon) | outcome (HCT-15 colon) | outcome (HL-60(TB) leukemia) | outcome (HOP-62 NSCLC) | outcome (HOP-92 NSCLC) | outcome (HS 578T breast) | outcome (HT29 colon) | outcome (IGROV1 ovarian) | outcome (K-562 leukemia) | outcome (LOX IMVI melanoma) | outcome (M14 melanoma) | outcome (MALME-3M melanoma) | outcome (MCF7 breast) | outcome (MDA-MB-231 breast) | outcome (MDA-MB-435) | outcome (MOLT-4 leukemia) | outcome (NCI-H23 lung) | outcome (NCI-H460 lung) | outcome (NCI/ADR-RES ovarian) | outcome (OVCAR-3 ovarian) | outcome (OVCAR-4 ovarian) | outcome (OVCAR-5 ovarian) | outcome (OVCAR-8 ovarian) | outcome (PC-3 prostate) | outcome (RXF 393 renal) | outcome (SF-268 CNS) | outcome (SF-295 CNS) | outcome (SF-539 CNS) | outcome (SK-MEL-2 melanoma) | outcome (SK-MEL-28 melanoma) | outcome (SK-MEL-5 melanoma) | outcome (SK-OV-3 ovarian) | outcome (SN12C renal) | outcome (SNB-19 CNS) | outcome (SNB-75 CNS) | outcome (SR leukemia) | outcome (SW-620 colon) | outcome (T-47D breast) | outcome (TK-10 renal) | outcome (U251 CNS) | outcome (UACC-257 melanoma) | outcome (UACC-62 melanoma) | outcome (UO-31 renal)

NCCCOc1cc2ccccc2cc1C(=O)NCCOc1nc2ccccc2cc1C(=O)Nc1ccc(Cl)cc1O
2.67 µM: TGI (DU-145 prostate)
2.17 µM: TGI (HCT-116 colon)
2.06 µM: TGI (SW-620 colon)
2.93 µM: TGI (CAKI-1 renal)
2.83 µM: TGI (OVCAR-5 ovarian)
2.69 µM: TGI (SF-268 CNS)
2.4 µM: TGI (KM12 colon)
active: GI50 (A498 renal) 0.342 µM | GI50 (HCT-116 colon) 0.252 µM | GI50 (HOP-92 NSCLC) 0.126 µM | GI50 (MCF7 breast) 0.295 µM | GI50 (OVCAR-4 ovarian) 0.0755 µM | GI50 (PC-3 prostate) 0.269 µM | GI50 (SR leukemia) 0.224 µM | GI50 (SW-620 colon) 0.0829 µM | GI50 (UACC-62 melanoma) 0.27 µM
3.12 µM: TGI (HT29 colon)
3.89 µM: TGI (HS 578T breast)
3.3 µM: TGI (K-562 leukemia)
2.8 µM: TGI (IGROV1 ovarian)
2.41 µM: TGI (NCI-H23 lung) | TGI (U251 CNS)
3.1 µM: TGI (OVCAR-8 ovarian)
2.74 µM: TGI (SN12C renal)
inactive: GI50 (786-0 renal) 1.17 µM | GI50 (ACHN renal) 1.07 µM | GI50 (BT-549 breast) 1.37 µM | GI50 (CAKI-1 renal) 1.33 µM | GI50 (COLO 205 colon) 1.1 µM | GI50 (DU-145 prostate) 1.34 µM | GI50 (HCC-2998 colon) 1.67 µM | GI50 (HCT-15 colon) 0.818 µM | GI50 (HL-60(TB) leukemia) 0.621 µM | GI50 (HOP-62 NSCLC) 0.721 µM | GI50 (HS 578T breast) 1.63 µM | GI50 (HT29 colon) 1.5 µM | GI50 (IGROV1 ovarian) 1.22 µM | GI50 (K-562 leukemia) 0.544 µM | GI50 (KM12 colon) 1.05 µM | GI50 (LOX IMVI melanoma) 1.07 µM | GI50 (M14 melanoma) 1.31 µM | GI50 (MALME-3M melanoma) 1.28 µM | GI50 (MDA-MB-231 breast) 1.17 µM | GI50 (MDA-MB-435) 1 µM | GI50 (NCI-H23 lung) 0.941 µM | GI50 (NCI-H460 lung) 0.482 µM | GI50 (NCI-H522 lung) 1.34 µM | GI50 (NCI/ADR-RES ovarian) 1.73 µM | GI50 (OVCAR-3 ovarian) 0.882 µM | GI50 (OVCAR-5 ovarian) 1.5 µM | GI50 (OVCAR-8 ovarian) 1.25 µM | GI50 (RXF 393 renal) 1.53 µM | GI50 (SF-268 CNS) 1.12 µM | GI50 (SF-295 CNS) 1.06 µM | GI50 (SF-539 CNS) 1.12 µM | GI50 (SK-MEL-2 melanoma) 1.87 µM | GI50 (SK-MEL-28 melanoma) 1.3 µM | GI50 (SK-OV-3 ovarian) 1.34 µM | GI50 (SN12C renal) 1.33 µM | GI50 (SNB-19 CNS) 1.31 µM | GI50 (SNB-75 CNS) 1.1 µM | GI50 (T-47D breast) 0.517 µM | GI50 (TK-10 renal) 1.3 µM | GI50 (U251 CNS) 1.05 µM | GI50 (UACC-257 melanoma) 0.678 µM | GI50 (UO-31 renal) 1.19 µM
3.35 µM: TGI (NCI/ADR-RES ovarian)
2.75 µM: TGI (M14 melanoma)
1.32 µM: TGI (HOP-92 NSCLC)
2.39 µM: TGI (LOX IMVI melanoma) | TGI (T-47D breast)
1.87 µM: TGI (NCI-H460 lung)
2.76 µM: TGI (SNB-19 CNS) | TGI (TK-10 renal)
2.38 µM: TGI (COLO 205 colon)
2.34 µM: TGI (SF-539 CNS)
2.79 µM: TGI (MALME-3M melanoma)
2.46 µM: TGI (MDA-MB-231 breast)
3.57 µM: TGI (SK-MEL-2 melanoma)
2.49 µM: TGI (786-0 renal)
3.03 µM: TGI (BT-549 breast)
1.82 µM: TGI (OVCAR-4 ovarian)
2.11 µM: TGI (HCT-15 colon) | TGI (SR leukemia) | TGI (UACC-257 melanoma)
3.18 µM: TGI (HCC-2998 colon)
2.03 µM: TGI (UACC-62 melanoma)
2.57 µM: TGI (SK-MEL-28 melanoma)
2.47 µM: TGI (SF-295 CNS)
3.02 µM: TGI (RXF 393 renal)
1.92 µM: TGI (MCF7 breast)
2.82 µM: TGI (UO-31 renal)
2.63 µM: TGI (SK-OV-3 ovarian)
1.99 µM: TGI (PC-3 prostate)
2.3 µM: TGI (ACHN renal) | TGI (SNB-75 CNS)
2.84 µM: TGI (NCI-H522 lung)
2.37 µM: TGI (HL-60(TB) leukemia) | TGI (HOP-62 NSCLC) | TGI (MDA-MB-435)
3.45 µM: TGI (A498 renal)
2.25 µM: TGI (OVCAR-3 ovarian)
